This is an account of results in ChEMBL document CHEMBL3745648, “Synthesis, in vitro antibacterial activities of a series of 3-N-substituted canthin-6-ones” (2016).

The term MIC denotes the least concentration at which growth counts as inhibited. Lower therefore signals a more susceptible organism.

≈ marks a conversion by molar mass, not a printed value.

Format in all cases: functional
For assay [1], the system named is Ralstonia solanacearum. Put plainly: Antibacterial activity against Ralstonia solanacearum after 12 to 16 hrs by plate reader analysis.
Another assay has as its system Bacillus cereus. Kind of assay: Antibacterial activity against Bacillus cereus after 12 to 16 hrs by plate reader analysis.
The test system of the next assay is Staphylococcus aureus. Put plainly: Antibacterial activity against Staphylococcus aureus after 12 to 16 hrs by plate reader analysis.
Assay [2] concerns Ralstonia solanacearum. Put plainly: Antibacterial activity against Pseudomonas solanacearum after 12 to 16 hrs by plate reader analysis.

Consider `O=C1CCc2nccc3c4ccccc4n1c23`, for which the minimum inhibitory concentration (MIC) was found to be 15.6 µg/mL (≈ 70.3 µM) in the assay with Ralstonia solanacearum [1], 15.6 µg/mL (≈ 70.3 µM) in the assay with Bacillus cereus, 125 µg/mL (≈ 562 µM) against Staphylococcus aureus and 7.81 µg/mL (≈ 35.1 µM) against Ralstonia solanacearum [2].
Regarding `O=C1CCC2c3c(c4ccccc4n31)CCN2Cc1ccccc1` (stereo unspecified), the minimal inhibitory concentration (MIC) against Ralstonia solanacearum [1], in the assay with Bacillus cereus, against Staphylococcus aureus and with Ralstonia solanacearum [2] was greater than 125 µg/mL in each case.
For the molecule `Cc1ccc(C[n+]2ccc3c4ccccc4n4c(=O)ccc2c34)cc1.[Cl-]`, the MIC against Ralstonia solanacearum [1] turned out to be 31.2 µg/mL; in the assay with Bacillus cereus, 15.6 µg/mL; with Staphylococcus aureus, 1.95 µg/mL; in the assay on Ralstonia solanacearum [2], 7.81 µg/mL.
In the same order, the values of `CCCCCCCC[n+]1ccc2c3ccccc3n3c(=O)ccc1c23.[Br-]` are 31.2 µg/mL, 62.5 µg/mL, 0.98 µg/mL and 7.81 µg/mL.
On the same counts, the results for `O=c1ccc2c3c(cc[n+]2Cc2ccc(CBr)cc2)c2ccccc2n13.[Br-]` are 31.2 µg/mL, 62.5 µg/mL, 7.81 µg/mL and 31.2 µg/mL.
On to `O=c1ccc2c3c(cc[n+]2Cc2ccc(Cl)cc2)c2ccccc2n13.[Cl-]`, for which the minimal inhibitory concentration (MIC) stood at 15.6 µg/mL against Ralstonia solanacearum [1], 15.6 µg/mL with Bacillus cereus, 7.81 µg/mL in the assay with Staphylococcus aureus and 15.6 µg/mL in the assay on Ralstonia solanacearum [2].
With `Cc1cccc(C[n+]2ccc3c4ccccc4n4c(=O)ccc2c34)c1.[Cl-]`, the minimal inhibitory concentration (MIC) against Ralstonia solanacearum [1] was 15.6 µg/mL; in the assay on Bacillus cereus, 15.6 µg/mL; against Staphylococcus aureus, 1.95 µg/mL; in the assay with Ralstonia solanacearum [2], 7.81 µg/mL.
Take `CC[n+]1ccc2c3ccccc3n3c(=O)ccc1c23.[I-]`: the MIC against Ralstonia solanacearum [1], against Bacillus cereus, in the assay on Staphylococcus aureus and in the assay with Ralstonia solanacearum [2] was greater than 125 µg/mL each time.
`O=c1ccc2c3c(cc[n+]2Cc2ccc(F)cc2F)c2ccccc2n13.[Cl-]`: the MIC against Ralstonia solanacearum [1] came out at 31.2 µg/mL; in the assay with Bacillus cereus, 31.2 µg/mL; in the assay on Staphylococcus aureus, 0.98 µg/mL; against Ralstonia solanacearum [2], 7.81 µg/mL.
Consider `O=c1ccc2c3c(cc[n+]2Cc2ccccc2)c2ccccc2n13.[Cl-]`, for which the minimal inhibitory concentration (MIC) in the assay on Ralstonia solanacearum [1] came to 3.91 µg/mL; in the assay with Bacillus cereus, 3.91 µg/mL; against Staphylococcus aureus, 1.95 µg/mL; in the assay with Ralstonia solanacearum [2], 1.95 µg/mL.
Turning to `O=c1ccc2c3c(cc[n+]2Cc2ccc(F)cc2)c2ccccc2n13.[Cl-]`, the MIC turned out to be 31.2 µg/mL in the assay with Ralstonia solanacearum [1], 31.2 µg/mL against Bacillus cereus, 1.95 µg/mL against Staphylococcus aureus and 15.6 µg/mL in the assay with Ralstonia solanacearum [2].
Take `O=C1CCC2NCCc3c2n1c1ccccc31` (stereo unspecified): the MIC in the assay with Ralstonia solanacearum [1], in the assay on Bacillus cereus, in the assay on Staphylococcus aureus and in the assay on Ralstonia solanacearum [2] was greater than 125 µg/mL in each case.
For the molecule `O=c1ccc2c3c(cc[n+]2Cc2ccccc2F)c2ccccc2n13.[Cl-]`, the MIC in the assay on Ralstonia solanacearum [1] is 15.6 µg/mL; in the assay with Bacillus cereus it was 7.81 µg/mL; in the assay on Staphylococcus aureus, 1.95 µg/mL; with Ralstonia solanacearum [2], 3.91 µg/mL.
In the same order, the values of `O=c1ccc2c3c(cc[n+]2Cc2c(F)cccc2F)c2ccccc2n13.[Cl-]` are 15.6 µg/mL, 15.6 µg/mL, 0.98 µg/mL and 7.81 µg/mL.
For the molecule `CC(C)[n+]1ccc2c3ccccc3n3c(=O)ccc1c23.[I-]`, the minimal inhibitory concentration (MIC) against Ralstonia solanacearum [1], against Bacillus cereus, against Staphylococcus aureus and with Ralstonia solanacearum [2] was greater than 125 µg/mL throughout.
`CCCCC[n+]1ccc2c3ccccc3n3c(=O)ccc1c23.[I-]`: the minimum inhibitory concentration (MIC) with Ralstonia solanacearum [1] turned out to be 31.2 µg/mL; in the assay with Bacillus cereus it was 62.5 µg/mL; with Staphylococcus aureus, 31.2 µg/mL; in the assay on Ralstonia solanacearum [2] it was 15.6 µg/mL.
For `CCC[n+]1ccc2c3ccccc3n3c(=O)ccc1c23.[I-]`, the MIC in the assay on Ralstonia solanacearum [1], against Bacillus cereus, with Staphylococcus aureus and against Ralstonia solanacearum [2] was greater than 125 µg/mL each time.
Consider `O=c1ccc2c3c(cc[n+]2Cc2ccc(C(F)(F)F)cc2)c2ccccc2n13.[Cl-]`, for which the minimum inhibitory concentration (MIC) with Ralstonia solanacearum [1] was found to be 15.6 µg/mL; against Bacillus cereus, 62.5 µg/mL; against Staphylococcus aureus, 7.81 µg/mL; with Ralstonia solanacearum [2] it was 62.5 µg/mL.
As to `C=CC[n+]1ccc2c3ccccc3n3c(=O)ccc1c23.[Br-]`, the MIC against Ralstonia solanacearum [1] stood at 62.5 µg/mL; in the assay on Bacillus cereus, 125 µg/mL; in the assay with Staphylococcus aureus it was 62.5 µg/mL; against Ralstonia solanacearum [2], 62.5 µg/mL.
Consider `CC(C)C[n+]1ccc2c3ccccc3n3c(=O)ccc1c23.[I-]`, for which the MIC with Ralstonia solanacearum [1] is greater than 125 µg/mL; against Bacillus cereus it was greater than 125 µg/mL; against Staphylococcus aureus it was 125 µg/mL; in the assay with Ralstonia solanacearum [2] it was 62.5 µg/mL.
On to `C[n+]1ccc2c3ccccc3n3c(=O)ccc1c23.[I-]`, for which the MIC with Ralstonia solanacearum [1], against Bacillus cereus, with Staphylococcus aureus and in the assay with Ralstonia solanacearum [2] was greater than 125 µg/mL each time.
Consider `Cc1ccccc1C[n+]1ccc2c3ccccc3n3c(=O)ccc1c23.[Cl-]`, for which the MIC in the assay with Ralstonia solanacearum [1] was found to be 7.81 µg/mL; in the assay with Bacillus cereus, 7.81 µg/mL; in the assay with Staphylococcus aureus, 1.95 µg/mL; with Ralstonia solanacearum [2] it was 3.91 µg/mL.
Consider `O=c1ccc2c3c(cc[n+]2Cc2ccccc2)c2ccccc2n13.[Br-]`, for which the MIC against Ralstonia solanacearum [1] came out at 3.91 µg/mL; against Bacillus cereus, 3.91 µg/mL; in the assay with Staphylococcus aureus, 0.98 µg/mL; in the assay with Ralstonia solanacearum [2], 7.81 µg/mL.
As for `O=c1ccc2c3c(cc[n+]2Cc2ccc(OCc4ccccc4)cc2)c2ccccc2n13.[Cl-]`, the minimal inhibitory concentration (MIC) with Ralstonia solanacearum [1] came to 7.81 µg/mL; with Bacillus cereus, 15.6 µg/mL; against Staphylococcus aureus, 0.98 µg/mL; against Ralstonia solanacearum [2], 3.91 µg/mL.
For `O=c1ccc2c3c(cc[n+]2[O-])c2ccccc2n13`, the MIC against Ralstonia solanacearum [1] turned out to be 15.6 µg/mL (≈ 66.2 µM); in the assay on Bacillus cereus, 15.6 µg/mL (≈ 66.2 µM); in the assay on Staphylococcus aureus it was 15.6 µg/mL (≈ 66.2 µM); in the assay with Ralstonia solanacearum [2] it was 7.81 µg/mL (≈ 33.1 µM).
For the molecule `CCCC[n+]1ccc2c3ccccc3n3c(=O)ccc1c23.[I-]`, the MIC in the assay with Ralstonia solanacearum [1] is 62.5 µg/mL; with Bacillus cereus, 125 µg/mL; against Staphylococcus aureus, 62.5 µg/mL; in the assay with Ralstonia solanacearum [2], 62.5 µg/mL.
With `CC1(C)S[C@@H]2[C@H](NC(=O)[C@H](N)c3ccccc3)C(=O)N2[C@H]1C(=O)[O-].[Na+]` [AMPICILLIN SODIUM], the MIC is 7.81 µg/mL against Ralstonia solanacearum [1], 3.91 µg/mL in the assay on Bacillus cereus, 3.91 µg/mL with Staphylococcus aureus and 7.81 µg/mL in the assay with Ralstonia solanacearum [2].
Consider `O=c1ccc2nccc3c4ccccc4n1c23` [CANTHIN-6-ONE], for which the minimum inhibitory concentration (MIC) against Ralstonia solanacearum [1] is 7.81 µg/mL (≈ 35.5 µM); in the assay with Bacillus cereus, 7.81 µg/mL (≈ 35.5 µM); with Staphylococcus aureus, 31.2 µg/mL (≈ 142 µM); against Ralstonia solanacearum [2] it was 3.91 µg/mL (≈ 17.8 µM).
Consider `C[C@@H]1O[C@@H]1P(=O)([O-])[O-].[Na+].[Na+]` [PHOSPHOMYCIN DISODIUM], for which the minimum inhibitory concentration (MIC) in the assay with Ralstonia solanacearum [1] came to 1.95 µg/mL; against Bacillus cereus it was 3.91 µg/mL; in the assay on Staphylococcus aureus it was 3.91 µg/mL; against Ralstonia solanacearum [2], 125 µg/mL.
